Laboratory results: US8058243B2, “Method for treating a brain cancer with ifenprodil” (HSC Research and Development Limited Partnership, priority 2006, dated 2011)
Counter-ions that a name gives are not always drawn. Like-named read-outs stand apart in the source and are kept apart here.

Tested on: murine neural precursor cells (neurosphere cultures)
Assay: HTS of LOPAC library against secondary neurosphere cultures, MTT proliferation assay at 3 μM, day 7 (z score, P value)
Type: cell-based, mouse
[1] = LOPAC library screen at 3 μM, secondary neurosphere cultures, MTT
[2] = LOPAC primary screen, neurosphere MTT proliferation, 3 μM, day 7
[3] = yes/no: significantly inhibited neurosphere proliferation in primary screen
[4] = LOPAC library screen, 3 μM, MTT, secondary neurosphere cultures, day 7
[5] = primary LOPAC screen, 3 μM, MTT, neurosphere proliferation
[6] = LOPAC screen, neurosphere MTT proliferation, 3 μM, day 7
[7] = yes/no: significantly inhibited neurosphere proliferation (P<0.01) in primary screen
[8] = yes/no: significantly inhibited neurosphere proliferation in the primary screen
[9] = yes/no: significantly inhibited neurosphere proliferation (P<0.01) in the primary screen

How did the “Z Score” value (168 h, 3 µM) turn out when `CN1CCN(C2=Nc3cc(Cl)ccc3Nc3ccccc32)CC1` [Clozapine] was run?
The value was 0.5473.

And the Z score (168 h, 3 µM)?
The Z score was 0.547.

With `COc1cc2c(c(OC)c1OC)-c1ccc(OC)c(=O)cc1[C@@H](NC(C)=O)CC2` [Colchicine] as the compound, how does the Activity read?
The Activity was “yes”.

And the “Z Score” value?
The value was −10.75.

And the Z score?
The Z score was −10.753.

Which results are given for `C[C@]12CCC(=O)C=C1CC[C@@H]1[C@@H]2CC[C@@]2(C)[C@H]1CC[C@]2(O)C(=O)CO` [Cortexolone]?
Z Score [1]: −0.6087; Z score [2]: −0.609; Activity [3]: no

Which results are given for `C[C@]12C[C@H](O)[C@H]3[C@@H](CCC4=CC(=O)CC[C@@]43C)[C@@H]1CC[C@@H]2C(=O)CO` [Corticosterone]?
Activity: no; Z Score [4]: −2.285; Z score [5]: −2.285

`CC(=O)OCC(=O)[C@@]1(O)CC[C@H]2[C@@H]3CCC4=CC(=O)CC[C@]4(C)[C@H]3C(=O)C[C@@]21C` [Cortisone 21-acetate] was tested. Which “Z Score” value [4] did it give?
The value was −2.218.

And the Z score [6]?
The Z score was −2.218.

And the Activity [7]?
Its Activity is “no”.

Which “Z Score” value [1] does the source give for `C[C@]12CCC(=O)C=C1CC[C@@H]1[C@@H]2C(=O)C[C@@]2(C)[C@H]1CC[C@]2(O)C(=O)CO` [Cortisone] here?
Its value is −0.5807.

What about the Z score [5] of the same compound?
Its Z score is −0.581.

What about the Activity [8] of the same compound?
The Activity was “no”.

Which “Z Score” value (LOPAC library screen, 3 μM, MTT, neurosphere cultures) does the source give for `CN(C)CCC=C1c2ccccc2C=Cc2ccccc21` [Cyclobenzaprine hydrochloride] here?
Its value is 0.07186.

And the Z score [6]?
The Z score was 0.072.

What about the Activity [7] of the same compound?
Its Activity is “no”.

With `O=P1(N(CCCl)CCCl)NCCCO1` (centres unmarked) [Cyclophosphamide monohydrate] as the compound, how does the Activity read?
Its Activity is “no”.

And the “Z Score” value?
Its value is −0.9758.

And the Z score?
The Z score was −0.976.

What does the source list for `NS(=O)(=O)c1cc2c(cc1Cl)NC(C1CC3C=CC1C3)NS2(=O)=O` (centres unmarked) [Cyclothiazide]?
Z Score [1]: −0.907; Z score [6]: −0.907; Activity [7]: no

How did the “Z Score” value (168 h, 3 µM) turn out when `CN1CCC(=C2c3ccccc3C=Cc3ccccc32)CC1` [Cyproheptadine hydrochloride] was run?
Its value is 1.232.

What about the Z score (168 h, 3 µM) of the same compound?
The Z score was 1.232.

And the Activity [7]?
The Activity was “no”.

With `CC(=O)O[C@]1(C(C)=O)CC[C@H]2[C@@H]3C=C(Cl)C4=CC(=O)[C@@H]5C[C@@H]5[C@]4(C)[C@H]3CC[C@@]21C` [Cyproterone acetate] as the compound, how does the “Z Score” value [4] read?
Its value is −1.803.

And the Z score [6]?
The Z score was −1.803.

What about the Activity [7] of the same compound?
The Activity was “no”.

How did the “Z Score” value turn out when `Cl.Cl.NCCSSCCN` [Cystamine dihydrochloride] was run?
The value was 2.23.

And the Z score [6]?
Its Z score is 2.230.

What about the Activity [7] of the same compound?
The Activity was “no”.

How did the “Z Score” value [1] turn out when `NCCS` [Cysteamine hydrochloride] was run?
Its value is −0.5989.

What about the Z score [2] of the same compound?
The Z score was −0.599.

What about the Activity (yes = significantly inhibited neurosphere proliferation (P<0.01) in the primary screen) of the same compound?
The Activity was “no”.

Which Activity does the source give for `N[C@H](CCCCCP(=O)(O)O)C(=O)O` [D(−)-2-Amino-7-phosphonoheptanoic acid] here?
The Activity was “no”.

What about the “Z Score” value of the same compound?
Its value is 0.9855.

And the Z score?
The Z score was 0.985.

With `S=C([S-])OC1CC2CC1C1CCCC21.[K+]` [D-609 potassium] as the compound, how does the “Z Score” value [1] read?
The value was −0.8964.

What about the Z score [5] of the same compound?
Its Z score is −0.896.

And the Activity [8]?
The Activity was “no”.

`N[C@@H]1CONC1=O` [D-Cycloserine] was tested. Which “Z Score” value [4] did it give?
The value was −1.24.

What about the Z score [6] of the same compound?
The Z score was −1.240.

What about the Activity [7] of the same compound?
Its Activity is “no”.

For `N[C@H](CO)C(=O)O` [D-Serine], which “Z Score” value [1] is on record?
Its value is −0.1429.

What about the Z score [2] of the same compound?
The Z score was −0.143.

And the Activity [3]?
The Activity was “no”.

With `OC[C@H]1O[C@@H](n2cnc3ccccc32)[C@H](O)[C@@H]1O` [D-ribofuranosylbenzimidazole] as the compound, how does the “Z Score” value read?
The value was −2.144.

And the Z score [6]?
The Z score was −2.144.

And the Activity [7]?
Its Activity is “no”.

Which “Z Score” value does the source give for `Clc1ccc(N2CC3CCC(C2)N3)nn1` [DBO-83] here?
Its value is −1.279.

What about the Z score [6] of the same compound?
Its Z score is −1.279.

What about the Activity [7] of the same compound?
The Activity was “no”.

Which results are given for `CCn1c(=O)[nH]c2cc(Cl)c(Cl)cc21` [DCEBIO]?
Z Score: 0.8099; Z score [6]: 0.810; Activity [7]: no

`CCC(=O)N1CCN(C(=O)c2ccccc2)CC1` [DM 235] was tested. Which “Z Score” value did it give?
The value was −2.019.

What about the Z score [6] of the same compound?
The Z score was −2.019.

What about the Activity [7] of the same compound?
Its Activity is “no”.

`O=[N+]([O-])c1cc2nc(O)c(O)nc2cc1[N+](=O)[O-]` [DNQX] was tested. Which “Z Score” value did it give?
Its value is 0.9307.

And the Z score [6]?
Its Z score is 0.931.

And the Activity [7]?
The Activity was “no”.

`COc1cc(OC)cc(C(CNc2ncnc3c2ncn3[C@@H]2O[C@H](CO)[C@@H](O)[C@H]2O)c2ccccc2C)c1` (some centres unmarked) [DPMA] was tested. Which “Z Score” value did it give?
The value was 0.03628.

And the Z score [6]?
The Z score was 0.036.

And the Activity [7]?
The Activity was “no”.

With `CCN(CCCl)Cc1ccccc1Br.Cl` [DSP-4 hydrochloride] as the compound, how does the “Z Score” value read?
The value was 1.518.

And the Z score [2]?
The Z score was 1.518.

And the Activity [9]?
The Activity was “no”.

Which “Z Score” value [4] does the source give for `O=c1c(-c2ccc(O)cc2)coc2cc(O)ccc12` [Daidzein] here?
Its value is −2.931.

What about the Z score [2] of the same compound?
Its Z score is −2.931.

And the Activity [9]?
The Activity was “yes”.
